In this assay the test system is Hsp90. Briefly: Hsp90 client protein immunodetection assay (Her2 degradation, Hsp70 induction) in BT474 cells. In kind it is cell-based, human. As to conditions: 24 h. The protocol:
FIG. 9. A cell-based immunodetection assay was used to monitor Hsp90 client protein, Her2 protein degradation (A), and the induction of a heat shock response Hsp70 protein levels (B) in Her2-overexpressing BT474 cell line. The effects of 40 and geldanamycin were compared to vehicle (DMSO) after treatment with varying concentrations of the compounds for 24 h. Each measurement is an average of three independent experiments run in […].
The classic method of following the cellular activity of Hsp90 inhibitors is through the proteasome-dependent degradation of Hsp90 client proteins. […] Another hallmark of Hsp90 inhibition is the induction of a heat shock response, which was evaluated by determining the Hsp70 protein levels by […]. […] The plates were read immediately on a luminometer (Clarity™ luminescence microplate reader). Readings from wells containing only control IgG and the corresponding horseradish peroxidase-linked secondary antibody were set as background and subtracted from all measured values. The average chemiluminescence signals obtained were expressed as a percentage of Her2 reduction or Hsp70 induction in comparison to vehicle (DMSO). Values were calculated from three independent experiments performed in triplicate.

Consider `COC1=C2CCCCCCCCCCCCCCCNC(=CC1=O)C2=O` [Compound 40], for which the “Hsp90 inhibition judged by client proteins Her2 and Hsp70 (in words)” value is “did not inhibit Hsp90”.

The values are drawn from patent publication US9957214B2, “Multifunctional radical quenchers” (ARIZONA BOARD OF REGENTS ON BEHALF OF ARIZONA STATE …, priority 2012, dated 2018).
